Measured values from patent publication US8658591B2, “Multi-LEU peptides and analogues thereof as selective PACE4 inhibitors and effective antiproliferative agents” (priority 2008, dated 2014).
*: point of attachment. Cholyl = C[C@H](CCC(=O)*)[C@H]1CC[C@H]2[C@@H]3[C@H](O)C[C@@H]4C[C@H](O)CC[C@]4(C)[C@H]3C[C@H](O)[C@]12C

Tests used:
[1] = tested on: DU145 cells implanted subcutaneously; test: DU145 xenograft tumor growth in nude mice; format: in vivo, Nu/Nu mice; settings: intra-tumoral 30 mg/kg once every 2 days, start at 50 mm^3 twenty days after implantation; vehicle control 160 mm^3
Text: To test the effects of PACE4 inhibitors in vivo, a nude mouse model was used in order to validate PACE4's role in tumor progression within an integrated system. […] The genetic basis of the nude mouse mutation is a disruption of the Foxn1 gene. The nude mouse can receive many different types of tissue and tumor grafts, as it mounts no rejection response. These xenografts are commonly used to test new methods of treating tumors. Nude mice were used to test the tumor progression of control DU145 cells compared to PACE4 silenced DU145 cells (clone 4-2) (FIG. 11). Control tumor received vehicle (DMSO) injections. Control tumor continued their growth pattern, reaching an average size of 160 mm^3, while treated tumors only reached a size of 75 mm^3 (FIG. 11A). Consequently, PACE4 inhibition by the specific inhibitors described herein reduces tumors growth. The nude mouse model is well known and extensively tested (Naomoto et al., 1987, J. Cancer Res. Clin. Oncol., 113: 544-549; Taetle et al., 1987 Cancer Treat. Rep. 71: 297-304).
DU145 cells were implanted subcutaneously (sc) at two sites on the backs of Nu/Nu mice, which lack an immune system. […] The genetic basis of the nude mouse mutation is a disruption of the Foxn1 gene. The nude mouse can receive many different types of tissue and tumor grafts, as it mounts no rejection response. […]

[2] = tested on: prostatic cell line DU145; test: MTT cell proliferation index, DU145; format: cell-based, human; settings: for Cell proliferation index: control = 100%, MTT after 48 hours
Description: The effects of the PACE4 inhibitors on cell proliferation were evaluated. MTT assay was used to evaluate the effects of PACE4 inhibitors on cell proliferation. MTT (3-(4,5-Dimethylthiazol-2-yl)-2,5-diphenyltetrazolium bromide) assay is a standard colorimetric assay for measuring cellular proliferation. Yellow MTT is reduced to purple formazan in the mitochondria of living cells. This reduction takes place only when mitochondrial reductase enzymes are active. Conversion is directly related to the number of viable cells. The MTT assay is quantitative and more sensitive than viability using trypan blue and can also be adapted to 96 well formats, whereas trypan blue tests must be read individually. Because the MTT assay requires less cell manipulation than [^3H]thymidine incorporation assays (no cell harvesting or medium changes are necessary), the possibility of error is reduced and the standard deviation values are lower. […] Other assays also known can be used to determine the effects of an inhibitor on the proliferation of a cell.
The index of cellular proliferation of cells treated with the ML and acetyl-ML (CH3CO—NH-[…]-CONH2 (SEQ ID NO: 5), see Table 2) peptides were measured using the colorimetric MTT assay (thiazolyl blue tetrazolium bromide; Sigma-Aldrich). Briefly, cells were seeded in 96-well plate (BD Biosciences) in triplicate with 100 μl of a 3.5×10^4 cells/ml cell suspension in complete growth medium. The following day, cells were carefully washed twice with PBS and media were replaced with 100 μl of either RPMI or conditioned growth media. Conditioned growth medium preparation consists in 1.2×10^5 cells seeded in 6-well plates with complete growth media. The next day, cells are washed twice with PBS and the media are replaced with 1 ml RPMI growth medium. 48 hours later, the conditioned media are collected, filtered through […] syringe filter units and incubated on different cell lines.
48 hours later, 20 μl of a MTT solution (5 mg/ml in PBS 1×) was added to each well for 4.5 h at 37° C./5% CO2. The media was then discarded and the cells were solubilized with 100 μl isopropanol/0.04 N HCl solution. The absorbance was measured at a wavelength of 550 nm with a reference at 650 nm in microplate reader (SpectraMax190™; Molecular Devices).

“Cholyl-NH-LLLLRVKR-NH2 (Cholyl-LLLLRVKR-NH2) [cholyl ML]” was tested, and the “average tumor size reached” value [1] was 75 mm^3, the “effect on cell proliferation index, in words” value ([2]; DU145) was “more potent effects than ML or acetyl-ML peptides” and the Cell proliferation index ([2]; DU145, 1 μM peptide) was 86.65%. It also gave a Cell proliferation index ([2]; DU145, 10 μM peptide) of 38.70% and a Cell proliferation index ([2]; DU145, 100 μM peptide) of 4.36%.
